{
  "source": "patent US8834843B2",
  "about": "“Imaging method” (GE Healthcare Limited, priority 2007, dated 2014)",
  "key": {"[1]": {"experiment": "Biodistribution in BDL rats with and without excess cold compound", "assay_type": "in vivo", "conditions": "male, Sprague Dawley, rat, iv, total radioactivity, BDL rats, 15 days post-op, 1 hour post-injection; for dose excreted at 1 h: bile and urine", "experimental": "(§1) On the appropriate day post surgery BDL and sham animals were removed and put under isoflurane anaesthesia, then each animal was injected with 0.3 ml intravenously (i.v.) via tail vein (˜3MBq). At the appropriate time point post-injection of the test item, each animal was re-anaesthetised with isoflurane, sacrificed by cervical dislocation weighed and the weight recorded via a barcode scanning system. Each animal was dissected and the following organs and tissues were removed and counted using BASIL counter protocol 40 or manual counting:\n(§2) The recorded activity in a whole organ (e.g., liver) was corrected for background radioactivity and for radioactive decay and the biodistribution of radioactivity calculated by reference to Formula I:\n(§3) [formula] where: • A=counts per second measured in organ • B=total counts per second measured in all samples (excluding the injection site)\n(§4) The percentage of injected radioactivity in the weighed tissue samples (e.g., blood) was calculated to give % i.d. in the entire tissue by reference to Formula 2:\n(§5) [formula] where: • Zs=counts per second in sample • Ws=weight of sample in grams • Wb=weight of animal in grams immediately after sacrifice • B=total counts per second measured in all the samples (excluding the injection site) • F=tissue specific factor representing the mass of the tissue as a proportion of the total body weight of the animal\n(§6) The biodistribution of radioactivity was investigated in 15 days post-operatively in BDL and sham-operated male Sprague Dawley rats (procedures described in Example 3) 1 hour following of intravenous injection via tail vein of ˜3 MBq of Compound 8, both before and after addition of 1:100 and 1:10,000 fold excess of cold Compound 8. At the appropriate time point post-injection of the test Item, each animal was re-anaesthetised with isoflurane, sacrificed by cervical dislocation and weighed. Each animal was dissected and organs and tissues (see Tables 5 and 6 below) were removed and counted using BASIL counter protocol 40 or manual counting."}, "[2]": {"test_system": "BDL fibrogenic liver", "experiment": "Biodistribution in BDL rats with and without excess cold compound", "assay_type": "in vivo", "conditions": "rat, in vivo", "experimental": "as §1, §2, §3, §4, §5, §6"}},
  "note": "Like-named read-outs stand apart in the source and are kept apart here. Numbered stars: 1 amine (or outer) side, 2 acyl side, 3 side chain; on linkers, the order of the positions; unused ones are H or OH. Bridge positions count the residues as written; N and C are the ends. Side chains are listed from the residue outwards. Peptide text beside a SMILES is read from it. * marks the point of attachment. X1 = C/C(=N\\O)C(C)(C)NCCC(CCNC(C)(C)/C(C)=N/O)CCN*; Glutaryl = O=C(CCCC(=O)[*:2])[*:1]; X2 = NC(=O)COCC(=O)NCCOCCOCCOCCN*",
  "data": [
    {"molecule": "C/C(=N\\O)C(C)(C)NCCC(CCNC(=O)CCCC(=O)NCCCC[C@@H]1NC(=O)CSC[C@@H](C(=O)NCCOCCOCCOCCNC(=O)COCC(N)=O)NC(=O)[C@H](Cc2ccccc2)NC(=O)[C@@H]2CSSC[C@H](NC1=O)C(=O)N[C@@H](CCCNC(=N)N)C(=O)NCC(=O)N[C@@H](CC(=O)O)C(=O)N2)CCNC(C)(C)/C(C)=N/O", "note": "(stereo partly shown) [Compound 8] ({CH2CO}-K([Glutaryl-X1])CRGDCFC-X2; disulfide 2-6; thioether N-8)", "values": [
      {"measurement": "dose excreted at 1 h", "setting": "[1]; 3 MBq, 10K-fold excess cold Compound 8", "value": 41.6, "unit": "%"},
      {"measurement": "dose excreted at 1 h", "setting": "[1]; 3 MBq, 100-fold excess cold Compound 8", "value": 38.3, "unit": "%"},
      {"measurement": "dose excreted at 1 h", "setting": "[1]; 3 MBq, no excess", "value": 41, "unit": "%"},
      {"measurement": "tissue uptake dose at 1 h", "setting": "[1]; blood, 10K-fold excess cold Compound 8, read-out: Activity in Blood, Mean", "value": 1.6, "unit": "%ID"},
      {"measurement": "tissue uptake dose at 1 h", "setting": "[1]; blood, 100-fold excess cold Compound 8, read-out: Activity in Blood, Mean", "value": 1.61, "unit": "%ID"},
      {"measurement": "tissue uptake dose at 1 h", "setting": "[1]; blood, no excess, read-out: Activity in Blood, Mean", "value": 1.47, "unit": "%ID"},
      {"measurement": "tissue uptake dose at 1 h", "setting": "[1]; bone, 10K-fold excess cold Compound 8, read-out: Activity in Bone, Mean", "value": 3.18, "unit": "%ID"},
      {"measurement": "tissue uptake dose at 1 h", "setting": "[1]; bone, 100-fold excess cold Compound 8, read-out: Activity in Bone, Mean", "value": 2.97, "unit": "%ID"},
      {"measurement": "tissue uptake dose at 1 h", "setting": "[1]; bone, no excess, read-out: Activity in Bone, Mean", "value": 3.02, "unit": "%ID"},
      {"measurement": "tissue uptake dose at 1 h", "setting": "[1]; carcass, 10K-fold excess cold Compound 8, read-out: Activity in Carcass, Mean", "value": 6.14, "unit": "%ID"},
      {"measurement": "tissue uptake dose at 1 h", "setting": "[1]; carcass, 100-fold excess cold Compound 8, read-out: Activity in Carcass, Mean", "value": 6.47, "unit": "%ID"},
      {"measurement": "tissue uptake dose at 1 h", "setting": "[1]; carcass, no excess, read-out: Activity in Carcass, Mean", "value": 4.36, "unit": "%ID"},
      {"measurement": "tissue uptake dose at 1 h", "setting": "[1]; heart, 10K-fold excess cold Compound 8, read-out: Activity in Heart, Mean", "value": 0.14, "unit": "%ID"},
      {"measurement": "tissue uptake dose at 1 h", "setting": "[1]; heart, 100-fold excess cold Compound 8, read-out: Activity in Heart, Mean", "value": 0.13, "unit": "%ID"},
      {"measurement": "tissue uptake dose at 1 h", "setting": "[1]; heart, no excess, read-out: Activity in Heart, Mean", "value": 0.13, "unit": "%ID"},
      {"measurement": "tissue uptake dose at 1 h", "setting": "[1]; injection site, 10K-fold excess cold Compound 8, read-out: Activity in Injection Site, Mean", "value": 1.68, "unit": "%ID"},
      {"measurement": "tissue uptake dose at 1 h", "setting": "[1]; injection site, 100-fold excess cold Compound 8, read-out: Activity in Injection Site, Mean", "value": 1.75, "unit": "%ID"},
      {"measurement": "tissue uptake dose at 1 h", "setting": "[1]; injection site, no excess, read-out: Activity in Injection Site, Mean", "value": 1.32, "unit": "%ID"},
      {"measurement": "tissue uptake dose at 1 h", "setting": "[1]; kidneys, 3 MBq, 10K-fold excess cold Compound 8, read-out: Activity in Kidneys, Mean", "value": 3.61, "unit": "%ID"},
      {"measurement": "tissue uptake dose at 1 h", "setting": "[1]; kidneys, 3 MBq, 100-fold excess cold Compound 8, read-out: Activity in Kidneys, Mean", "value": 4.2, "unit": "%ID"},
      {"measurement": "tissue uptake dose at 1 h", "setting": "[1]; kidneys, no excess, read-out: Activity in Kidneys, Mean", "value": 3.78, "unit": "%ID"},
      {"measurement": "tissue uptake dose at 1 h", "setting": "[1]; liver, 10K-fold excess cold Compound 8, read-out: Activity in Liver, Mean", "value": 9.81, "unit": "%ID"},
      {"measurement": "tissue uptake dose at 1 h", "setting": "[1]; liver, 100-fold excess cold Compound 8, read-out: Activity in Liver, Mean", "value": 16.1, "unit": "%ID"},
      {"measurement": "tissue uptake dose at 1 h", "setting": "[1]; liver, no excess, read-out: Activity in Liver, Mean", "value": 12.7, "unit": "%ID"},
      {"measurement": "tissue uptake dose at 1 h", "setting": "[1]; lung, 10K-fold excess cold Compound 8, read-out: Activity in Lung, Mean", "value": 0.5, "unit": "%ID"},
      {"measurement": "tissue uptake dose at 1 h", "setting": "[1]; lung, 100-fold excess cold Compound 8, read-out: Activity in Lung, Mean", "value": 0.5, "unit": "%ID"},
      {"measurement": "tissue uptake dose at 1 h", "setting": "[1]; lung, no excess, read-out: Activity in Lung, Mean", "value": 0.43, "unit": "%ID"},
      {"measurement": "tissue uptake dose at 1 h", "setting": "[1]; muscle, 10K-fold excess cold Compound 8, read-out: Activity in Muscle, Mean", "value": 9.61, "unit": "%ID"},
      {"measurement": "tissue uptake dose at 1 h", "setting": "[1]; muscle, 100-fold excess cold Compound 8, read-out: Activity in Muscle, Mean", "value": 8.76, "unit": "%ID"},
      {"measurement": "tissue uptake dose at 1 h", "setting": "[1]; muscle, no excess, read-out: Activity in Muscle, Mean", "value": 10.8, "unit": "%ID"},
      {"measurement": "tissue uptake dose at 1 h", "setting": "[1]; skin, 10K-fold excess cold Compound 8, read-out: Activity in Skin, Mean", "value": 13, "unit": "%ID"},
      {"measurement": "tissue uptake dose at 1 h", "setting": "[1]; skin, 100-fold excess cold Compound 8, read-out: Activity in Skin, Mean", "value": 12, "unit": "%ID"},
      {"measurement": "tissue uptake dose at 1 h", "setting": "[1]; skin, no excess, read-out: Activity in Skin, Mean", "value": 12.6, "unit": "%ID"},
      {"measurement": "tissue uptake dose at 1 h", "setting": "[1]; small and large intestine, 10K-fold excess cold Compound 8, read-out: Activity in Small & Large Intestine, Mean", "value": 8.58, "unit": "%ID"},
      {"measurement": "tissue uptake dose at 1 h", "setting": "[1]; small and large intestine, 100-fold excess cold Compound 8, read-out: Activity in Small & Large Intestine, Mean", "value": 7.41, "unit": "%ID"},
      {"measurement": "tissue uptake dose at 1 h", "setting": "[1]; small and large intestine, no excess, read-out: Activity in Small & Large Intestine, Mean", "value": 8.32, "unit": "%ID"},
      {"measurement": "tissue uptake dose at 1 h", "setting": "[1]; spleen, 10K-fold excess cold Compound 8, read-out: Activity in Spleen, Mean", "value": 0.52, "unit": "%ID"},
      {"measurement": "tissue uptake dose at 1 h", "setting": "[1]; spleen, 100-fold excess cold Compound 8, read-out: Activity in Spleen, Mean", "value": 0.57, "unit": "%ID"},
      {"measurement": "tissue uptake dose at 1 h", "setting": "[1]; spleen, no excess, read-out: Activity in Spleen, Mean", "value": 0.51, "unit": "%ID"},
      {"measurement": "tissue uptake dose at 1 h", "setting": "[1]; stomach, 10K-fold excess cold Compound 8, read-out: Activity in Stomach, Mean", "value": 1.69, "unit": "%ID"},
      {"measurement": "tissue uptake dose at 1 h", "setting": "[1]; stomach, 100-fold excess cold Compound 8, read-out: Activity in Stomach, Mean", "value": 0.96, "unit": "%ID"},
      {"measurement": "tissue uptake dose at 1 h", "setting": "[1]; stomach, no excess, read-out: Activity in Stomach, Mean", "value": 0.89, "unit": "%ID"},
      {"measurement": "tissue uptake dose at 1 h", "setting": "[1]; thyroid, 10K-fold excess cold Compound 8, read-out: Activity in Thyroid, Mean", "value": 0.06, "unit": "%ID"},
      {"measurement": "tissue uptake dose at 1 h", "setting": "[1]; thyroid, 100-fold excess cold Compound 8, read-out: Activity in Thyroid, Mean", "value": 0.04, "unit": "%ID"},
      {"measurement": "tissue uptake dose at 1 h", "setting": "[1]; thyroid, no excess, read-out: Activity in Thyroid, Mean", "value": 0.04, "unit": "%ID"},
      {"measurement": "Binding to BDL fibrogenic liver with excess cold compound (in words)", "setting": "[2]", "value": "Specifically Inhibited by Cold Compound 8"}
    ]}
  ]
}
